# Tests used:
# Assay type in all cases: in vivo, mouse
# DMD exon 2 = assay: RT-PCR quantification of DMD exon 2 skipping (Dup2, WT, Del2 transcripts) in muscles of Dup2 mice; conditions: adult Dup2 mice, tail vein, 3 months post-injection
# Procedure: Total RNA was isolated from tissue samples and analyzed by reverse transcription (RT) followed by PCR. […] For each sample, 1 μg of total RNA was used to generate cDNA by RT-PCR using random hexamer primers according to the manufacturer's protocol (Thermo Scientific, Ferk1672) and then used for a single PCR of 35 cycles using 1 μg of RNA and a mixture of random hexamer and oligo(dT) for each RT reaction. mRNA was then amplified via primers specific to the DMD 5′UTR and the exon 3-4 junction as follows.
# Following electrophoresis, PCR products were electrophoresed on a 2% agarose gel and imaged using a Gel Logic 200 Imaging System (Kodak). Quantification of Dup2, WT or Del2 transcript was performed using ImageJ (an open source platform for scientific image analysis), and each band plotted in Prism (GraphPad) as a percentage of the overall dystrophin transcript. The images were then used to quantify the relative amount of each transcript using ImageJ software 14. Using the “Gel” function of ImageJ, a box was drawn in each lane around the area where the three possible transcripts would be. A histogram of each sample was then generated and the area under the curve was measured. The sum of the area under the three peaks were added together and then individual peak area was measured as a percentage of the total.
# dystrophin = assay: Western blot / immunoblot quantification of dystrophin in muscles of Dup2 mice; conditions: for Western blot quantification: % of dystrophin: percent of WT, adult Dup2 mice, tail vein, 3 months post-injection
# Procedure: (§1) 150 μl of this lysis buffer was used for 100 mg of tissue. This solution was then put on ice for 30min, and then tissue was lysed using a metal bead (1 min at 30 Hz, TissueLyser II, Qiagen). These last two steps were repeated, and then the lysate was centrifuged at 14000 g for 20min at 4° C. The supernatant was mixed with a classical 4× Laemmli buffer and boiled for 5 min at 100° C. 50-150 μg of protein were run on a precast 3-8% Tris-Acetate gel (NuPage, Life Science) for 16 h at 80V (4° C.). Using a nitrocellulose membrane, gels were transferred overnight at 300 mA using a cooling device. […] All antibodies were diluted in half Odyssey blocking buffer (Licor®) and half Tris buffered saline with Tween (TBST) (Sigma-Aldrich). Following secondary incubation, 5×5 min with 0.1% Tween washes were performed followed by a ddH2O rincing. Both IRDye@ signals were simultaneously scanned using the Odyssey® CLx (LI-COR). The signals for both dystrophin, utrophin and α-actinin were quantified using ImageJ.
# With some experiments, 25×40 μm thick sections of cryopreserved tissues were used for western blotting to quantify amount of restored dystrophin protein. Extracted protein was run on 3-8% Tris-Acetate protein gels and visualized using specific primary antibodies against dystrophin or α-actinin the corresponding Licor secondary antibodies IRDye 680 or IRDye 800 (as set out above). Blots were imaged using the Licor Odyssey CLx and quantified using ImageJ.
# Steel beads were added to the tissue, which was homogenized using the Tissuelyser II (Qiagen) for 2 min at a rate of 30/sec. Lysates were then incubated on ice and spun down; the supernatant was removed and stored at −80═ C. until immunoblotting, and the cell debris was discarded. For immunoblotting, 50 μg C57BL/6 muscle tissue protein or 150 μg Dup2 muscle tissue protein was loaded with a loading dye (1× laemmli) on a 3-8% Tris Acetate gel (Life Technologies, EA0378BOX). […] The membrane was scanned on the Odyssey CLx and imaged using Image Studio 14. Single color channel images were using Image Studio and then imported into ImageJ for quantification. For each channel, a box was drawn in each lane around the protein band using the “Gel” function in ImageJ. A histogram of each sample was then generated and the area under the curve was measured. Dystrophin was normalized to α-actinin by dividing the area of the dystrophin band by the area of the α-actinin band for each sample. If the same sample was run on multiple immunoblots, the median was taken to represent that particular sample. The C57BL/6 measurement was determined by taking the mean of all wild type samples. Both treated Dup2 and control Dup2 measurements were reported as a percentage of the wild type (n≥3).
# [1] = qPCR quantification of viral vector genomes (biodistribution) in muscles of Dup2 mice; conditions: adult Dup2 mice, tail vein, 3 months post-injection
# Procedure: Physical titer determination was determined based on degradation of non-encapsidated DNA following digestion of viral capsids. Released encapsidated DNA was quantified by qPCR to determine the DNAase Resistant Particle (DRP) titer. The DRP titer (also referred to as vector genomes [vg]) were determined for scAAV9.U7.ACCA or scAAV1.U7-ACCA products using real-time quantitative PCR (qPCR) using dilutions of a linearized plasmid standard containing U7 amplicon as assay standards. The DRP quantitative PCR (qPCR) assay involves serial dilution of the test sample (10^−2 to 10^−5) and sequential digestion with DNase I and Proteinase K, followed by qPCR analysis. DNA detection was accomplished using sequence specific primers targeting a primer/probe combination specific to the construct sequence (probe: 5′-[…]-3′ (SEQ ID NO: 4); Fw primer: 5′-agctcctatgttgttaTCTAGAG-3′ (SEQ ID NO: 5); Rv primer: 5′-[…]-3′ (SEQ ID NO: 6)) and amplified using a fluorescently tagged probe hybridizing to the U7 amplicon. Titration of the encapsidated viral genome were performed using quantitative PCR-based titration method runned on a Prism 7500 Taqman detector system (PE Applied Biosystems).
# All tissues and organs for qPCR/Biodistribution studies were placed into sterile tubes, snap-frozen in liquid nitrogen, and kept at <−70° C. qPCR analyses were performed on samples at 1, 3 and 6 months post-injection. 300 ul DNA lysis buffer (0.05M Tris-HCl pH 8, 0.1M NaCl, 0.1M EDTA, 1% SDS) plus 7.5 ul proteinase K were added to sections and incubated at 55° C. overnight. DNA was quantified and 25 ng of DNA was run in triplicate. The same qPCR primers and probe used for vector titration were used to perform the tissue biodistribution qPCR studies. Data were represented as normalized copy number per 1 ug DNA.
# utrophin = assay: Western blot quantification of utrophin in muscles of Dup2 mice; conditions: adult Dup2 mice, tail vein, 3 months post-injection
# Procedure: as §1
# Dup2 mice [2] = assay: Evans blue dye (EBD) positive fibers after exhaustive treadmill exercise in Dup2 mice; conditions: adult Dup2 mice, tail vein
# Procedure: (§2) To induce muscle injury for Evans blue dye (EBD) analysis, a treadmill exercise program was used. In the first week, four month old mice were trained three times on a treadmill at 10° inclination, running as follows: 0 m/min for 2 min, 5 m/min for 5 min, 10 m/min for 15 min, and 12 m/min for 5-10 min. In the following three weeks (3×/week), mice ran on the treadmill at 2 m/min for 30 min. Before mice euthanasia, the treadmill was used at the same inclination at 5 m/min for 5 min. Following this initial warming up, the speed was increased to +1 m/min until exhaustion. EBD solution (10 mg/ml in PBS) was filtered and injected intraperitoneally (IP) into mice after the last treadmill exercise, and mice were sacrificed 24 hrs later. For analysis, muscle sections were stained with α-laminin to distinguish myofibers, and the percentage of positive Evans blue fibers (labeled in red) were then quantified using ImageJ software. For quantification of centronucleation, H&E staining was performed using standard technique, and fiber counting was performed manually using ImageJ. For both analyses, three sections were processed and counted for each animal.
# (§3) H&E staining was performed using standard protocol. Quantification of both centronucleation and Evans blue dye (EBD) was performed manually using ImageJ. Three sections were processed and counted for each animal.
# Dup2 mice [3] = assay: Quantification of centronucleation of myofibers (H&E) in Dup2 mice; conditions: adult Dup2 mice, tail vein, 3 months post-injection
# Procedure: as §2, §3
# [4] = test system: tibialis anterior (TA) muscle; assay: Force generation and protection from eccentric contractions, tibialis anterior of Dup2 mice; parameters: Eccentric contraction: % force decrease: scale not given here; conditions: tail vein adult Dup2 mice
# Procedure: Physiologic studies were conducted on TA muscles from 12 week old mice that had been treated with an intramuscular injection of 3.1×10^11 vg at 8 weeks (N≥5 limbs). For systemic studies, the mice were 20-21 weeks old following 12 weeks of treatment (N≥12 limbs). The force study procedure was conducted using a modified version of Hakim's procedure (Hakim et al., J Appl. Physiol. (1985) 2011; 110:1656-1663; Wein et al., Nat. Med. 2014; 20:992-1000). Initial anesthetization of mice was conducted by giving an intraperitoneal injection of a cocktail containing five times their weight (i.e., the weight of the mouse) of 25 mg/mL ketamine and twice their weight of 2.5 mg/ml xylazine. […]
# The resting force was set to between 3-4 g for a 10 minute equilibrium period. The TA muscle was then stimulated at the optimal length (Lo, mm) and active tetanic muscle force was recorded to give the absolute force measurement using the Lab View-based DMC program (Aurora Scientific). […] The cross-sectional area measured as mass (g)/(muscle density×ratio of fiber length×Lo) where muscle density is 1.06 mg/mm^3 and the ratio of fiber length in the TA is 0.6 (Burkholder et al., J Morphol 1994; 221:177-190). […] Statistical significance was assessed using a Kruskal-Wallace test assuming nonparametric data in the GraphPad Prism (version 6.03 for Windows, GraphPad Software, San Diego California USA). […]
compound,measurement,setting,value
"C[C@H]1C[C@@H]2[C@H]([C@@H](O)C[C@@]3(C)[C@H]2CC[C@]3(O)C(=O)COC(=O)CCC(=O)[O-])[C@@]2(C)C=CC(=O)C=C12.[Na+] [PDN, 6α-methylprednisolone 21-hemisuccinate sodium salt]",RT-PCR quantification: % of Del2 transcript,DMD exon 2; DIA,0%
same,RT-PCR quantification: % of Dup2 transcript,DMD exon 2; DIA,97.7%
same,RT-PCR quantification: % of WT transcript,DMD exon 2; DIA,2.3%
same,RT-PCR quantification: % of Del2 transcript,DMD exon 2; GAS,4.3%
same,RT-PCR quantification: % of Dup2 transcript,DMD exon 2; GAS,86%
same,RT-PCR quantification: % of WT transcript,DMD exon 2; GAS,9.6%
same,RT-PCR quantification: % of Del2 transcript,DMD exon 2; HEART,0%
same,RT-PCR quantification: % of Dup2 transcript,DMD exon 2; HEART,98.3%
same,RT-PCR quantification: % of WT transcript,DMD exon 2; HEART,1.6%
same,RT-PCR quantification: % of Del2 transcript,DMD exon 2; TA,0%
same,RT-PCR quantification: % of Dup2 transcript,DMD exon 2; TA,100%
same,RT-PCR quantification: % of WT transcript,DMD exon 2; TA,0%
same,RT-PCR quantification: % of Del2 transcript,DMD exon 2; TRI,0%
same,RT-PCR quantification: % of Dup2 transcript,DMD exon 2; TRI,98.3%
same,RT-PCR quantification: % of WT transcript,DMD exon 2; TRI,1.7%
same,Western blot quantification: % of dystrophin,dystrophin; DIA,9.2%
same,dystrophin expression,"dystrophin; Dup2 mice, PDN alone",does not induce dystrophin expression
same,Western blot quantification: % of dystrophin,dystrophin; GAS,2.1%
same,Western blot quantification: % of dystrophin,dystrophin; HEART,13.7%
same,Western blot quantification: % of dystrophin,dystrophin; TA,4.83%
same,Western blot quantification: % of dystrophin,dystrophin; TRI,4.8%
same,viral vector genome quantification,[1]; DIA,17 vector/ug DNA
same,viral vector genome quantification,[1]; GAS,15 vector/ug DNA
same,viral vector genome quantification,[1]; HEART,188 vector/ug DNA
same,viral vector genome quantification,[1]; TA,39 vector/ug DNA
same,viral vector genome quantification,[1]; TRI,50 vector/ug DNA
same,Western blot quantification: ratio of utrophin/a-actinin,utrophin; DIA,0.6
same,Western blot quantification: ratio of utrophin/a-actinin,utrophin; GAS,0.2
same,Western blot quantification: ratio of utrophin/a-actinin,utrophin; HEART,0.5
same,Western blot quantification: ratio of utrophin/a-actinin,utrophin; TA,0.3
same,Western blot quantification: ratio of utrophin/a-actinin,utrophin; TRI,0.4
same,% of EBD positive fibers,Dup2 mice [2]; DIA,12.31%
same,% of EBD positive fibers,Dup2 mice [2]; GAS,3.04%
same,% of EBD positive fibers,Dup2 mice [2]; TA,8.14%
same,% of EBD positive fibers,Dup2 mice [2]; TRI,2.57%
same,% of centronucleation,Dup2 mice [3]; DIA,68.55%
same,% of centronucleation,Dup2 mice [3]; TA,71.12%
same,Absolute force: Force (mN),[4],1401 mN
same,Eccentric contraction: % force decrease,[4]; repeated eccentric contractions,0.52
